Article PMC8888134, “Characterization of UDP-glycosyltransferase family members reveals how major flavonoid glycoside accumulates in the roots of Scutellaria baicalensis” (BMC Genomics, 2022)

Assays:
Assay in all cases: HPLC product quantification, Eadie-Hofstee plot
Assay type in all cases: biochemical, Scutellaria baicalensis
Conditions in all cases: UDP-Glc as donor; 100 mM Tris-HCl pH 7.0, 37 °C, 10 min; baicalein 0.5-200 μM
SbUGT3 = system: T1, SbUGT3
T1 construct: full-length ORF (RT-PCR) in pYesdest17, E. coli Rosetta (DE3), Ni-NTA purified
Description: HPLC product quantification, Eadie-Hofstee plot on SbUGT3

SbUGT2 = system: T2, SbUGT2
T2 construct: full-length ORF (RT-PCR) in pYesdest17, E. coli Rosetta (DE3), Ni-NTA purified
Description: HPLC product quantification, Eadie-Hofstee plot on SbUGT2

SbUGT1 = system: T3, SbUGT1
T3 construct: full-length ORF (de novo synthesized) in pYesdest17, E. coli Rosetta (DE3), Ni-NTA purified
Description: HPLC product quantification, Eadie-Hofstee plot on SbUGT1

Work on `O=c1cc(-c2ccccc2)oc2cc(O)c(O)c(O)c12` [baicalein] yielded a Km (SbUGT3) of 2.67 µM, a Km (SbUGT2) of 101 µM and a Km (SbUGT1) of 3.14 µM.
